In brackets after ≈: the same amount, converted by molar mass. Activity calls are given as the source filed them. No cut-off for these calls is given here.

The MIC is the least concentration at which growth counts as inhibited.

One assay deals with Candida albicans. The assay can be described thus: Antifungal activity against Candida albicans DSM1665 assessed as inhibition of fungal growth by broth microdilution method. The format is functional, organism-based. Background: In broth dilution the organism is exposed to a series of concentrations in liquid medium.
Another assay relates to Wickerhamomyces anomalus. In words: Antifungal activity against Pichia anomala DSM6766 assessed as inhibition of fungal growth by broth microdilution method. Type of assay: functional, organism-based.
The subject of assay [1] is Schizosaccharomyces pombe. In words: Antifungal activity against Schizosaccharomyces pombe DSM70572 assessed as inhibition of fungal growth by broth microdilution method. Type of assay: functional, organism-based.
Another assay concerns Mucor hiemalis. The assay can be described thus: Antifungal activity against Mucor hiemalis DSM2656 assessed as inhibition of fungal growth by broth microdilution method. Type of assay: functional, organism-based.
Another assay deals with Rhodotorula glutinis. The assay can be described thus: Antifungal activity against Rhodotorula glutinis DSM1034 assessed as inhibition of fungal growth by broth microdilution method. Type of assay: functional, organism-based.
The subject of assay [2] is Mycolicibacterium smegmatis. In words: Antimycobacterial activity against Mycobacterium smegmatis ATCC700084 assessed as inhibition of mycobacterial growth by broth microdilution method. Type of assay: functional.
The subject of assay [3] is Chromobacterium violaceum. In words: Antibacterial activity against Chromobacterium violaceum DSM30191 assessed as inhibition of bacterial growth by broth microdilution method. Type of assay: functional.
The next assay concerns Kocuria rhizophila. In words: Antibacterial activity against Kocuria rhizophila DSM1790 assessed as inhibition of bacterial growth by broth microdilution method. Type of assay: functional.
A further assay has as its system Escherichia coli. The assay can be described thus: Antibacterial activity against Escherichia coli DSM1116 assessed as inhibition of bacterial growth by broth microdilution method. Type of assay: functional.
The subject of a further assay is Bacillus subtilis. The assay can be described thus: Antibacterial activity against Bacillus subtilis DSM10 assessed as inhibition of bacterial growth by broth microdilution method. Type of assay: functional.
Another assay relates to Staphylococcus aureus. In words: Antibacterial activity against Staphylococcus aureus DSM346 assessed as inhibition of bacterial growth by broth microdilution method. The format is functional.
Another assay concerns MCF7. The assay can be described thus: Cytotoxicity against human MCF7 cells assessed as cell growth inhibition incubated for 5 days by MTT assay. Type of assay: functional, cell-based. Conditions: time 5.0 day. For orientation: Formazan colour is commonly taken as a measure of viable cells.
A further assay relates to PC-3. The assay can be described thus: Cytotoxicity against human PC-3 cells assessed as cell growth inhibition incubated for 5 days by MTT assay. As to conditions: time 5.0 day. The format is functional, cell-based.
The next assay has as its system KB 3-1. In words: Cytotoxicity against human KB 3-1 cells assessed as cell growth inhibition incubated for 5 days by MTT assay. Type of assay: functional, cell-based. Conditions: time 5.0 day.
The next assay relates to L929. In words: Cytotoxicity against mouse L929 cells assessed as cell growth inhibition incubated for 5 days by MTT assay. As to conditions: time 5.0 day. The format is functional, cell-based.
The test system of a further assay is SK-OV-3. In words: Cytotoxicity against human SK-OV-3 cells assessed as cell growth inhibition incubated for 5 days by MTT assay. The format is functional, cell-based. As to conditions: time 5.0 day.
The test system of another assay is A549. In words: Cytotoxicity against human A549 cells assessed as cell growth inhibition incubated for 5 days by MTT assay. The format is functional, cell-based. Conditions: time 5.0 day.
Another assay relates to A-431. In words: Cytotoxicity against human A-431 cells assessed as cell growth inhibition incubated for 5 days by MTT assay. Type of assay: functional, cell-based. Conditions: time 5.0 day.

Take NYSTATIN: the MIC was 2.1 µg/mL in the assay on Candida albicans; 2.1 µg/mL in the assay with Wickerhamomyces anomalus; 16.7 µg/mL in assay [1]; 8.3 µg/mL in the assay with Mucor hiemalis; 1 µg/mL in the assay with Rhodotorula glutinis.

For `NC[C@H]1O[C@H](O[C@H]2[C@H](O)[C@@H](O[C@H]3O[C@H](CO)[C@@H](O)[C@H](N)[C@H]3O)[C@H](N)C[C@@H]2N)[C@H](N)[C@@H](O)[C@@H]1O` [BEKANAMYCIN], the MIC in [2] is 2.1 µg/mL (≈ 4.34 µM).

For `CN(C)[C@@H]1C(O)=C(C(N)=O)C(=O)[C@@]2(O)C(O)=C3C(=O)c4c(O)cccc4[C@@](C)(O)[C@H]3[C@H](O)[C@@H]12.Cl` [OXYTETRACYCLINE HYDROCHLORIDE], the MIC is 0.4 µg/mL in assay [3]; 0.4 µg/mL with Kocuria rhizophila; 1.7 µg/mL in the assay on Escherichia coli; 4.2 µg/mL in the assay with Bacillus subtilis; 0.1 µg/mL with Staphylococcus aureus.

Take `O=C(O)C[C@H](O)C1(c2cccc(O)c2O)Oc2cccc3cccc(c23)O1`: the outcome with MCF7, with PC-3, in the assay with KB 3-1, with L929, in the assay on SK-OV-3 and in the assay with A549 was inactive. Moreover, the result in the assay with A-431 was inactive. Moreover, the MIC with Staphylococcus aureus came to 66.6 µg/mL (≈ 181 µM).

As to `COC(=O)C[C@H](O)C1(c2cccc(O)c2O)Oc2cccc3cccc(c23)O1`, the outcome in the assay with MCF7, in the assay on PC-3, with KB 3-1, in the assay on L929, in the assay on SK-OV-3 and with A549 was inactive. The outcome with A-431 was inactive. Moreover, the MIC in the assay with Staphylococcus aureus came to 66.6 µg/mL (≈ 174 µM).

The values above are taken from ChEMBL document CHEMBL4842333, “Catechol-Bearing Polyketide Derivatives from Sparticola junci” (2021).
